The values that follow come from patent US20230255979A1, “METHODS OF TREATING ACUTE RESPIRATORY DISORDERS” (Bristol-Myers Squibb Company, priority 2020, published 2023).

Each structure is given as a SMILES string. “Also recorded” adds a separate entry of the source.

In assay [1] the test system is peripheral blood mononuclear cell (PBMCs). Description: Cytokine assessment in PBMCs pretreated with compound, then LPS or SEB/IL-2 treatment. Conditions: 1 h pretreatment. It counts as cell-based, human.
Another assay has as its system monocytes. Put plainly: Cytokine production in LPS-stimulated monocytes. It counts as cell-based, human. As for the experimental part:
In addition, PBMCs were isolated from buffy coat using Ficoll gradient method and were used for monocyte enrichment without CD16 depletion with the Stem Cell technologies kit (Cat #19058). […] All cells were cultured at 37° C. with 5% CO2 in a humidified incubator.
For Monocytes: PBMCs were isolated from buffy coat using Ficoll gradient method and were used for monocyte enrichment without CD16 depletion with the Stem Cell technologies kit (Cat #19058). […] All cells were cultured at 37° C. with 5% CO2 in a humidified incubator. Supernatant was collected for cytokine and chemokine analysis.
(§1) For Macrophages: monocytes were differentiated into macrophages by stimulation with 50 ng/ml of MCS-F for 5 days followed by treatment with 50 ng/ml Interferon gamma for ˜16 hours. Macrophages were then plated, allowed to acclimate for 24 hours. […] All cells were cultured at 37° C. with 5% CO2 in a humidified incubator. Supernatants were collected for further analysis. Cytokine and chemokine analysis was performed in the supernatants using Magpix magnetic beads.

The next assay concerns whole blood. Description: Pharmacodynamic assessment in MAD study, ex vivo LPS stimulation of whole blood (TruCulture). On the set-up: species or system human. Particulars: healthy volunteers, 150 mg, individual level data. Here is the method: The study consisted of escalating multiple doses in sequential groups. Thirty-seven subjects were enrolled into 5 dose level cohorts (10, 30, 60, 120, and 150 mg).
Each subject participated in a screening phase, a treatment phase (included baseline). Eligible subjects were admitted to the study site on Day −1 and resided at the study site from Day −1 to Day 17. The first dose of study drug was administered on Day 1, under fasted conditions, according to the randomization schedule. The same QD dose was administered for the remainder of the planned treatment schedule (Day 2 to Day 14, inclusive). For each dose level cohort in Part 2, blood samples were collected on Day 1 predose (0-hour), and predose (0-hour) on Days 2, 3, 5, 8, 11, and 14. Blood samples were also collected at approximately the same time of the day as the Days 1 to 14 samples on Days 15, 17, 21, and 28. Subjects were discharged from the study site on Day 17 upon satisfactory safety review and completion of the required study procedures. For all dose level cohorts, subjects returned to the study site for outpatient visits on Day 21 and Day 28. There were no early terminations.
Ex vivo stimulation was performed in whole blood using the TruCulture® assay system (Myriad RBM, Austin, Tex.). […] Briefly, blood (1 ml) was drawn into the LPS-containing TruCulture tubes from each subject on the days listed in the study protocol. The truculture tubes were placed in a 37° C. block thermostat for 24±1 hrs and then frozen at −70° C. Media mixed with plasma was analyzed for TNF-α and other cytokine/chemokine levels. TNF-α inhibition in ex vivo LPS-stimulated blood was measured as percent change in TNF-α levels from baseline. Percent change in other cytokines/chemokines in the ex vivo stimulation assay was also measured with respect to their baseline levels.

For another assay, the system named is PBMCs. Description: RT-PCR gene expression of cytokines and chemokines in LPS-treated PBMCs from HV. Conditions: LPS 1.5 hrs then compound 1.5 hrs.
For a further assay, the system named is macrophages. Put plainly: Cytokine production in LPS-stimulated macrophages. Format: cell-based, human. Conditions: compound 4 h or 24 h. Here is the method: as §1

Consider `CCOCc1cnc(Cl)nc1Oc1ccc2c(ccc3sc4c(c32)NC[C@@H](C)NC4=O)n1` [Compound I-82], for which the “inhibition of TNF-α in PBMCs” value in assay [1] (LPS stimulation 24 hours, FIG. 1A) is “dose dependent inhibition; also recorded: decreased in a dose-dependent manner”; in assay [1] (SEB/IL-2 treatment 3 days, FIG. 1B), “dose dependent inhibition; also recorded: decreased in a dose-dependent manner”. Further, the “inhibition of TNF-α in monocytes” value is “dose dependent inhibition; also recorded: decreased in a dose-dependent manner” in the assay with monocytes (LPS stimulation 23 hours, FIG. 2) and “dose-dependent inhibition; also recorded: inhibits” with monocytes (compound 4 h or 24 h, LPS 3 or 23 hours, FIG. 3). Further, the “inhibition of IL-6 in monocytes” value with monocytes (compound 4 h or 24 h, LPS 3 or 23 hours, FIG. 4A) is “dose-dependent inhibition; also recorded: inhibits”. Moreover, the “inhibition of IL-1β in monocytes” value in the assay with monocytes (compound 4 h or 24 h, LPS 3 or 23 hours, FIG. 4B) is “dose-dependent inhibition; also recorded: inhibits”. In addition, the “inhibition of IL-6 following ex vivo LPS stimulation” value with whole blood (FIG. 8B) is “inhibition of IL-6”. Also, in the assay with whole blood (FIG. 8C), the “inhibition of MIP-1A following ex vivo LPS stimulation” value is “inhibition of MIP-1A”. For the same compound, the “inhibition of MIP-1B following ex vivo LPS stimulation” value in the assay with whole blood (FIG. 8D) was “inhibition of MIP-1B”. The “inhibition of gene expression of MCP-1” value with PBMCs (FIG. 5A) is “inhibition of gene expression; also recorded: inhibits gene expression”. In addition, the “inhibition of gene expression of IL-6” value in the assay on PBMCs (FIG. 5B) is “inhibition of gene expression; also recorded: inhibits gene expression”. The “inhibition of gene expression of IL-1β” value in the assay on PBMCs (FIG. 5C) is recorded as “inhibition of gene expression; also recorded: inhibits gene expression”. The “inhibition of gene expression of TNF-α” value in the assay with PBMCs (FIG. 6A) is reported as “inhibits gene expression”. Also, the “inhibition of gene expression of GM-CSF” value in the assay with PBMCs (FIG. 6B) is recorded as “inhibition of gene expression; also recorded: inhibits gene expression”. For the same compound, the “inhibition of gene expression of ZFP36 (TTP)” value in the assay on PBMCs (FIG. 6C) is on record as “does not inhibit gene expression”. In addition, the “inhibition of IL-6 in macrophages” value with macrophages (LPS 3 or 23 hours, FIG. 4A) is reported as “dose-dependent inhibition; also recorded: inhibits”. Besides, in the assay with macrophages (LPS 3 or 23 hours, FIG. 4B), the “inhibition of IL-1β in macrophages” value is recorded as “dose-dependent inhibition; also recorded: inhibits”. In addition, the “inhibition of TNF-α in macrophages” value in the assay with macrophages (LPS (100 ng/ml) 3 or 23 hours, FIG. 3) was “dose-dependent inhibition; also recorded: inhibits”.
